We go through one compound from US10081662B2, “Modified relaxin B chain peptides” (The Florey Institute of Neuroscience and Mental Health, priority 2014, dated 2018).

The subject of data set [1] is ERK1/2. Nature of the data set: ERK1/2 phosphorylation (AlphaScreen SureFire) in rat renal myofibroblasts endogenously expressing RXFP1. The class given is cell-based. How it is done: The inventors then tested the single chain B7-33 C11.23S relaxin-2 peptide for its ability to signal via different pathways, cAMP (see Example 2) and pERK.1/2 on HEK-293T (cells stably expressing RXFP1) and myofibroblast cells (cells endogenously expressing RXFP1) The cAMP assay was conducted as described in Example 2. Phosphorylation of ERK1/2 was determined using AlphaScreen SureFire® assay which is a proprietary, non-radioactive and non-Western proximity assay that relies on singlet oxygen energy transfer (PerkinElmer Inc.). Rat renal fibroblasts (that endogenously express RXFP1 receptor) were seeded into a 96-well plate at a density of 40,000 cells per well and incubated overnight in complete media to allow cell adhesion. Cells were then serum-starved for 4-6 hours followed by native H2 relaxin (100 nM) or B7-33 C11.23S peptide (100 nM) treatment for periods of up to 20 minutes and ERK1/2 activation was quantified using the phospho-ERK1/2 Surefire AlphaScreen kit.
For orientation: Bead proximity is the source of the signal in Alpha formats.

Data set [2] concerns mouse model of isoproterenol (ISO) induced cardiac fibrosis. Description: Mouse model of isoproterenol-induced cardiomyopathy (cardiac fibrosis). Conditions: 129SV mice, 14 days, s.c. minipump; relative to isoproterenol treatment. The class given is in vivo. The text has this:
(§1) Seven to eight-week old male 129SV mice (which are sensitive to tissue injury and fibrosis) and age-matched female Balb/c mice (which are sensitive to changes in airway hyperresponsiveness) were used for the induction of isoproterenol-induced cardiomyopathy and ovalbumin-induced chronic allergic airways disease, respectively. 16 five week-old male C57BL/6 mice were used in the induction of prostate cancer growth. All animals were obtained from Monash Animal Services (Monash University, Clayton, Victoria, Australia) and housed under standard conditions (maintained on an 12 h light-12 h dark lighting cycle with free access to food and water) in the Department of Pharmacology Animal Room at Monash University.
(§2) The mid zone of the male mouse heart and largest lung lobe from female Balb/c mice were fixed in 10% neutral buffered formalin for 24-48 h before being processed and embedded routinely in paraffin wax. Representative sections of tissue, 3-5 um each, were taken and stained with either picrosirius red (Samuel et al. 2011 Lab Invest 91, 675-690) for the detection of interstitial collagen or Masson's trichrome (Royce et al, 2009, Endocrinology 150, 2692-2699) for the detection of subepithelial basement membrane collagen deposition).
(§3) Changes in picrosirius-red stained interstitial collagen or epithelial thickness and subepithelial collagen (fibrosis) around the airway lumen from Masson's trichrome-stained sections; which were all captured (at ×20 magnification) using a SPOT digital camera (Q Imaging, Burnaby, BC, Canada) and analysed with Image J 1.3 software (National Institutes of Health, Bethesda, Md.). Four to five fields per mid zone of the heart or 4-5 airways (of 150-350 μm in diameter) per mouse were assessed. Epithelial thickness and subepithelial collagen regions were traced with a digital pen and the thickness of each region calculated by the imaging software. Results were expressed as mean thickness ([…]) of the 4-5 airways sampled.
The apical region of the heart or second largest lung lobe from each mouse was treated as described previously (Samuel C S, et at., 2003, FASEB J 17, 121-123; Royce et at. 2009, Endocrinology 150, 2692-2699) for the determination of hydroxyproline content. Hydroxyproline values were estimated based on a standard curve constructed with serial dilutions of a 0.1 mg/mL stock of trans-4-hydroxyproline-L-proline (Sigma-Aldrich). Hydroxyproline values were then converted to collagen content as detailed previously (Samuel CS, et al. 2004. Endocrinology 145, 4125-4133) and, in turn, divided by the dry weight of each corresponding left ventricular or lung tissue assessed to yield collagen concentration (a measure of fibrosis). […]

Data set [3] has as its system mouse model of OVA-induced chronic allergic airway disease. Description: Mouse model of OVA-induced chronic allergic airway disease. It is filed as in vivo. Conditions: Balb/c mice.
From the text: as §1
Twenty-four hours after the last vehicle/drug administration, methacholine-induced airway reactivity was assessed by invasive plethysmography as described before (Locke et al. 2007, Am J Respir Mol Biol 36, 625-632; Royce et al. 2009, Endocrinology 150, 2692-2699). Mice were anaesthetized intraperitoneally with 200 μg/g ketamine and 10 μg/g xylazine. Tracheotomy was performed using an 18-gauge tracheotomy tube and jugular vein cannulated with a 0.61 9 0.28 mm polyethylene tube (Microtube Extrusions, North Rocks, NSW, Australia), Mice were then placed in a plethysmograph chamber (Buxco Research Systems, Wilmington, N.C., USA) where increasing concentrations of acetyl-β-methacholine (from 31.25 μg/kg to 500 μg/kg) were delivered intravenously in five doses. After every dose, airway resistance and compliance were measured (Biosystem XA version 2.7.9; Buxco Electronics Inc, Wilmington, N.C., USA). The change in airway resistance calculated by the maximal resistance after each dose minus baseline resistance (phosphate buffered saline alone) was plotted against each dose of methacholine evaluated.
as §2, §3
The apical region of the heart or second largest lung lobe from each mouse was treated as described previously (Samuel C S, et at., 2003, FASEB J 17, 121-123; Royce et at. 2009, Endocrinology 150, 2692-2699) for the determination of hydroxyproline content. Hydroxyproline values were estimated based on a standard curve constructed with serial dilutions of a 0.1 mg/mL stock of trans-4-hydroxyproline-L-proline (Sigma-Aldrich). Hydroxyproline values were then converted to collagen content as detailed previously (Samuel CS, et al. 2004. Endocrinology 145, 4125-4133) and, in turn, divided by the dry weight of each corresponding left ventricular or lung tissue assessed to yield collagen concentration (a measure of fibrosis).
The inventors also tested the fibrosis preventing activity of B7-33 C11.23S in a model of chronic allergic airway disease (AAD). […]

Data set [4] has as its system RM1 mouse prostate tumour cells. Description: Prostate tumour growth after injection of RM1 cells into prostates of C57BL/6 mice. It is filed as in vivo. Conditions: day 10 after RM1 cells, s.c. mini-pump from day 2, H2 relaxin 0.15, B7-33 C11.23S 0.075 mg/kg/day, vs untreated.
From the text: as §1
H2 relaxin can induce prostate and other tumour growth. To measure the effect of B7-33 C11.23S on tumour growth, 16 five week-old male C57BL/6 mice (obtained from Monash Animal Services) were injected with 5000 RM1 (mouse prostate tumor) cells into their prostates to induce tumor growth. One sub-group of mice n=5) was left untreated until day 10 post-RM1 cell administration. […]

Peptide text beside a SMILES is read from it.

As for `CC[C@H](C)[C@H](NC(=O)[C@H](C)NC(=O)[C@@H](NC(=O)[C@H](CCC(N)=O)NC(=O)[C@H](C)NC(=O)[C@H](CCCNC(=N)N)NC(=O)[C@@H](NC(=O)[C@H](CC(C)C)NC(=O)[C@H](CCC(=O)O)NC(=O)[C@H](CCCNC(=N)N)NC(=O)CNC(=O)[C@H](CO)NC(=O)[C@H](CC(C)C)NC(=O)[C@H](CCCCN)NC(=O)[C@@H](NC(=O)[C@@H](N)C(C)C)[C@@H](C)CC)C(C)C)[C@@H](C)CC)C(=O)N[C@@H](CO)C(=O)NCC(=O)N[C@@H](CCSC)C(=O)N[C@@H](CO)C(=O)N[C@H](C(=O)N[C@@H](Cc1c[nH]c2ccccc12)C(=O)N[C@@H](CO)C(=O)N[C@@H](CCCCN)C(=O)N[C@@H](CCCNC(=N)N)C(=O)N[C@@H](CO)C(=O)N[C@@H](CC(C)C)C(N)=O)[C@@H](C)O` [B7-33 C11.23S] (H-VIKLSGRELVRAQIAISGMSTWSKRSL-NH2), the “pERK potency in rat renal myofibroblast (in words)” value in data set [1] (rat renal myofibroblasts natively expressing RXFP1, FIG. 4) is recorded as “very high pERK potency”. Moreover, the “Time of peak ERK1/2 activation after peptide treatment” value in data set [1] (rat renal myofibroblasts, 100 nM peptide) turned out to be 5 min. The “ERK1/2 activation, level of efficacy” value in data set [1] (rat renal myofibroblasts, 100 nM peptide, up to 20 minutes, FIG. 4) is reported as “slightly higher level of efficacy as H2 relaxin”. Moreover, in data set [2], the “Percentage of interstitial collagen in the left ventricle (picrosirius red)” value is listed as “significantly reduced” and the “Total left ventricular collagen concentration (hydroxyproline analysis)” value is on record as “significantly reduced”. In addition, in data set [3] (OVA-induced increase, invasive plethysmography, FIG. 8D), the “Airway hyper-responsiveness (change in airway resistance to methacholine)” value is listed as “attenuated”. In addition, in data set [3] (compared to OVA treatment, FIG. 8B), the “Mean airway epithelial thickness” value is on record as “significantly reduced”. For the same compound, the “Total lung collagen content (hydroxyproline analysis)” value in data set [3] (relative to OVA treatment, FIG. 8C) is reported as “normalised”. In addition, the Prostate tumour size entry in data set [4] is “did not result in changes in tumour size relative to untreated”.
